Consider 79 molecules from the METLIN SMRT retention time set (Domingo-Almenara et al. 2019).

The data set can be described thus: gradient 5% acetonitrile 3 min, to 50% in 2 min, to 85% in 15 min, held 3 min, 100 µL/min. Conditions: column: Zorbax Extend-C18 2.1 x 50 mm; eluents: water / acetonitrile, 0.1% formic acid. Summed up:
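Pure standards were run in mixtures of ~100 molecules by HPLC coupled to a quadrupole time-of-flight mass spectrometer. The column was a Zorbax Extend-C18 (2.1 × 50 mm, 1.8 μm) at 100 μL/min, with water and acetonitrile each containing 0.1% formic acid, in positive and negative ionization mode. Dead and dwell volumes were 40 μL and 900 μL. Retention time was taken from computationally picked adduct peaks, each manually inspected, with data collected over 3 months.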
Consider `CN(C(=O)Cn1nc(Cc2cccnc2)c2ccccc2c1=O)C1CCCCC1`, for which the RP-LC retention time is 640 s.

`COC(=O)c1c(C)[nH]c(C(=O)N2CCC(CC(=O)NCCC(C)N3CCCC3)CC2)c1C` (centres undefined) registered an RP-LC retention time of 578 s.

For `O=C(CN1C(=O)CCC1=O)N1CC(c2nc(-c3cccc(C(F)(F)F)c3)no2)C1`, the RP-LC retention time amounted to 754 s.

`Cc1nc2sccn2c1-c1nnc(SCc2ccc([N+](=O)[O-])cc2)n1C`: the RP-LC retention time was determined as 626 s.

Regarding `O=C(NC1CCN(c2nnc3ccc(Cl)cn23)CC1)c1ccco1`, the RP-LC retention time stood at 606 s.

As to `CCc1ccc(CNC(=O)C2CCCN(c3ccc(=O)n(-c4ccc(F)cc4)n3)C2)cc1` (centres undefined), the RP-LC retention time stood at 910 s.

Turning to `Cc1ccc(CNC(=O)c2nnc(-c3ccc(S(=O)(=O)N4CCCCC4)cc3)o2)cc1`, the RP-LC retention time amounted to 1020 s.

Molecule `COc1cccc(-c2nc(C3CCN(S(=O)(=O)c4ccc(Cl)cc4)CC3)no2)c1` gave an RP-LC retention time of 1170 s.

`COc1cc2c(cc1OC)CN(C(=O)c1cc(-c3ccc(F)cc3)c[nH]1)CC2` returned an RP-LC retention time of 847 s.

With `O=C(C1CCN(S(=O)(=O)c2ccc3[nH]c(=O)ccc3c2)CC1)N1CCN(c2ccccc2F)CC1`, the RP-LC retention time is 754 s.

As for `COCC(=O)N[C@@H]1CN(C2CCCCCC2)CC[C@@H]1CO`, the RP-LC retention time came out at 561 s.

Take `Cc1nc(-c2cc3ccccc3nc2N2CCN(C(=O)c3cccs3)CC2)no1`: the RP-LC retention time was determined as 894 s.

Turning to `Cc1ccc(-c2nnc(N3CCC(C(=O)NCCCN4CCOCC4)CC3)o2)cc1`, the RP-LC retention time stood at 608 s.

`CC(C)N1C(=O)c2cccnc2Sc2cc(C(=O)NC3CC3)ccc21` yielded an RP-LC retention time of 702 s.

As for `COc1ccccc1N1CCN(CCN(C(=O)C2CCCCC2)c2ccccn2)CC1`, the RP-LC retention time worked out at 816 s.

As to `CC(=O)N(Cc1nn(C)c2c1CN(S(=O)(=O)c1cc(F)ccc1F)CC2)c1ccccc1`, the RP-LC retention time is 800 s.

`N#Cc1c(NC(=O)CSc2nnc3ccccn23)sc2c1CCC2` showed an RP-LC retention time of 704 s.

Consider `Cc1cc(F)ccc1NC(=O)CN1C(=O)CCCc2cc(S(=O)(=O)N3CCCCC3)ccc21`, for which the RP-LC retention time is 959 s.

Molecule `O=C(NCCc1ccco1)c1ccc2cnn(Cc3ccc(F)cc3)c2c1` registered an RP-LC retention time of 873 s.

The molecule `CCc1noc(C2(NC(=O)c3nn(C)c4ccccc34)CCCCC2)n1` displayed an RP-LC retention time of 1010 s.

`O=C(c1ccc(-c2csc(C3CC3)n2)cc1)N1CCCCC1` returned an RP-LC retention time of 971 s.

As to `CN(CC1CCOCC1)C(=O)Nc1ccc(F)c(Cl)c1`, the RP-LC retention time amounted to 797 s.

As to `O=S(=O)(NCc1ccccn1)c1ccc(F)c(Cl)c1`, the RP-LC retention time amounted to 643 s.

Molecule `CNC(=O)N1C[C@@H](CN(C)C)[C@H](NC(=O)C2(c3ccc(OC)cc3)CC2)C1` yielded an RP-LC retention time of 572 s.

As to `O=c1ccc(-c2ccc(F)cc2)nn1CCc1nc(-c2ccc(F)c(Br)c2)no1`, the RP-LC retention time turned out to be 1120 s.

Take `O=C(Cn1cccc1-c1nc(-c2ccc(F)cc2)no1)Nc1ccc2c(c1)OCO2`: the RP-LC retention time was 1010 s.

Take `COC[C@@H]1CN(Cc2cccc(OC)c2OC)C[C@H]1c1ccncc1`: the RP-LC retention time came to 656 s.

On to `Cc1ccc(Cl)cc1NC(=O)C1CCCN(c2nnc(C)c3c(C)n(-c4ccccc4)nc23)C1` (centres undefined), for which the RP-LC retention time was found to be 802 s.

As to `Cc1c(NC(=O)c2cccs2)c(=O)n(-c2ccccc2)n1C`, the RP-LC retention time came to 600 s.

The molecule `CCN(CC)CCn1c(NCc2ccc(Br)cc2)nc2ccccc21` gave an RP-LC retention time of 581 s.

On to `COCc1ncc(C)n1CCNC(=O)Nc1ccsc1C(=O)OC`, for which the RP-LC retention time came out at 615 s.

As for `Cc1ccc(CNC(=O)C2CCCN(c3nnc(C)c4c(C)n(-c5ccc(Cl)cc5)nc34)C2)cc1` (centres undefined), the RP-LC retention time came to 784 s.

`Cc1cc(C)n(CCC(=O)NCC2Cn3cccc3C(=O)N2C)n1` (centres undefined): the RP-LC retention time was found to be 593 s.

`Cc1noc(C)c1-c1ccc(S(=O)(=O)Nc2ccc(Br)cc2F)cc1` showed an RP-LC retention time of 1010 s.

For `O=C(c1ccco1)N1CCCn2nc(-c3ccncc3)cc2C1`, the RP-LC retention time is 560 s.

`Cc1noc(C2(NC(=O)c3cc(F)cc(F)c3)CCCCC2)n1` gave an RP-LC retention time of 916 s.

For the molecule `Cc1cccc(NC(=O)Cn2c(=O)n(-c3cccc(C)c3)c(=O)c3c2cc(C)n3C)c1`, the RP-LC retention time came to 888 s.

`Cc1c(Cl)cccc1NC(=O)NCC(c1cccnc1)c1cn(C)c2ccccc12` (centres undefined) gave an RP-LC retention time of 773 s.

Molecule `O=S(=O)(c1cc(-c2nnc(C3CCCC3)o2)co1)N1CCCCC1` returned an RP-LC retention time of 1000 s.

As to `O=C1NCCCCCN(C(=O)c2ccsc2)[C@H]2CCC[C@@H]12`, the RP-LC retention time is 692 s.

The molecule `CC(=O)Nc1ccc(C(=O)N(C2CC2)C2(C(=O)NCc3ccccc3)CCN(C(C)=O)CC2)cc1` displayed an RP-LC retention time of 692 s.

`COc1ccc(OC)c(-c2ccc(=O)n(CCc3nc(-c4ccc(F)cc4)no3)n2)c1` registered an RP-LC retention time of 977 s.

In turn, `CC1Oc2ccc(S(=O)(=O)N3CCC(C(=O)NCc4ccccc4Cl)CC3)cc2NC1=O` (centres undefined) yielded an RP-LC retention time of 816 s.

On to `CCCCCCC(=O)Nc1nc(-c2ccc(C)cc2)cs1`, for which the RP-LC retention time stood at 1190 s.

`CCc1nnc(-c2cn(CC(=O)NCc3cccc(Br)c3)c3ccccc23)o1` gave an RP-LC retention time of 867 s.

`CCc1ccc(S(=O)(=O)Nc2ccc(C3(C(=O)NCC4CCCO4)CC3)cc2)cc1` (centres undefined) returned an RP-LC retention time of 867 s.

Regarding `CC(C)n1c(CCNC(=O)c2ccc(Cl)cc2)nc2cccnc21`, the RP-LC retention time is 704 s.

Consider `O=C(CN1CCN(C(=O)Nc2ccc(Cl)cc2)CC1=O)NCc1ccco1`, for which the RP-LC retention time was 685 s.

Turning to `Cc1ccsc1CN1CC(Oc2ccccc2C(=O)NC2CC2)C1`, the RP-LC retention time was found to be 615 s.

For the molecule `CSc1cccc(NC(=O)N2CCC(C)(C(=O)NCc3ccccc3)CC2)c1`, the RP-LC retention time was 852 s.

For the molecule `COc1ccc(-c2noc(C3CCCN3C(=O)Nc3cccc(Cl)c3)n2)cc1` (centres undefined), the RP-LC retention time worked out at 1020 s.

As to `Cc1cc(C)n(-c2ccnc(N3CCC(C(=O)NCC4CCCO4)CC3)n2)n1` (centres undefined), the RP-LC retention time is 674 s.

Regarding `CC(C)Oc1ccc(CN2CCn3c(nn(CC4CC4)c3=O)C2)cc1`, the RP-LC retention time worked out at 761 s.

Regarding `COc1ccccc1-c1cnn2c(N3CCN(c4cccc(C)n4)CC3)cc(C)nc12`, the RP-LC retention time came out at 638 s.

The molecule `CCOC(=O)c1c(C)[nH]c(C(=O)N2CCCC(C(=O)NCc3ccccc3OC)C2)c1C` (centres undefined) gave an RP-LC retention time of 785 s.

`O=C1NCCCn2cc(S(=O)(=O)Nc3ccccc3)cc21`: the RP-LC retention time was 630 s.

Take `Cc1ccc(-n2nc(C)c3sc(N4CCCC(C(=O)NCc5ccc(N(C)C)cc5)C4)nc32)cc1` (centres undefined): the RP-LC retention time was determined as 867 s.

`COC(=O)CCNC(=O)C1c2ccccc2C(=O)N(Cc2ccco2)C12CCCCC2` (centres undefined) showed an RP-LC retention time of 799 s.

`Cc1cc(Nc2ccc(NC(=O)c3cnccn3)cc2)nc(N2CCCCC2)n1`: the RP-LC retention time worked out at 588 s.

The molecule `CCc1ccc2c(-c3cccc(Cl)c3)nc(=O)n(CC)c2n1` yielded an RP-LC retention time of 1120 s.

For the molecule `COC(=O)[C@H](CC1C=NC=N1)NCC12CC3CC(CC(C3)C1)C2` (some centres undefined), the RP-LC retention time was determined as 607 s.

For the molecule `CCNC(=O)N1CCC(c2noc(-c3cccnc3)n2)C1` (centres undefined), the RP-LC retention time stood at 605 s.

In the case of `O=C(NCCc1nc(-c2ccc3c(c2)OCO3)n[nH]1)c1ccc(F)cc1Cl`, the RP-LC retention time amounted to 692 s.

Molecule `COc1ccc(Cl)cc1C(=O)NCc1c(C)nc2sc(C)nn12` came in with an RP-LC retention time of 673 s.

In the case of `Cc1oc(-c2ccc(NC(=O)CC3CCCC3)cc2)nc1Cn1cccn1`, the RP-LC retention time worked out at 896 s.

`CC(C)CC(=O)Nc1cc2c(cc1S(=O)(=O)c1ccc(F)cc1)n(C)c(=O)n2C`: the RP-LC retention time came out at 847 s.

Take `COc1ccc(-c2ncc3c(n2)CCN(C(=O)Nc2ccccc2C(F)(F)F)C3)cc1`: the RP-LC retention time was determined as 939 s.

`COC(=O)c1cc(OCC(=O)Nc2ccc(Cl)cc2)c2cc(OC)ccc2n1` had an RP-LC retention time of 899 s.

Turning to `CCc1ccc(N2CC(c3noc(-c4cc(OC)c(OC)c(OC)c4)n3)CC2=O)cc1` (centres undefined), the RP-LC retention time came out at 927 s.

`Cc1sc2ncnc(N3CCCC(C)C3)c2c1C(=O)Nc1ccc(Cl)cc1F` (centres undefined) displayed an RP-LC retention time of 1330 s.

`Cn1ncc2c3ccccc3n(CCCC(=O)NCc3ccco3)c2c1=O`: the RP-LC retention time is 787 s.

In the case of `Cc1cc(N2CCC(NC(=O)Nc3ccc(Cl)cc3F)C2=O)ccc1F` (centres undefined), the RP-LC retention time amounted to 923 s.

Turning to `Cc1nc(NC(=O)c2cc(C3CC3)n(C3CCS(=O)(=O)C3)n2)sc1C` (centres undefined), the RP-LC retention time came out at 764 s.

Consider `CC(C)S(=O)(=O)N1CCC(CCOc2ccccc2)C1` (centres undefined), for which the RP-LC retention time was determined as 980 s.

`O=C(NCc1ccc(F)cc1)N1CCCC(Cn2c(C3CC3)nc3cccnc32)C1` (centres undefined): the RP-LC retention time came to 669 s.

In turn, `O=C1NC2(CCN(C(=O)NCc3cccc(F)c3)CC2)Nc2cc(Cl)ccc21` had an RP-LC retention time of 770 s.

Consider `CN1C(=O)C2(CCN(C(=O)c3ccccc3F)C2)c2ccccc21` (centres undefined), for which the RP-LC retention time stood at 750 s.

In turn, `CC(Cc1ccco1)NC(=O)C1CC(=O)N(c2ccc(F)cc2)C1` (centres undefined) displayed an RP-LC retention time of 714 s.

In turn, `COc1ccc(-n2cc(-c3nc(-c4ccccn4)no3)c3ccccc3c2=O)cc1OC` showed an RP-LC retention time of 821 s.
